According to patent publication US20240343726A1, “PYRROLOPYRIDINE-3- AND 4-CARBOXAMIDE COMPOSITIONS AND METHODS FOR CELLULAR PROLIFERATION” (The Rockefeller University, priority 2021, published 2024):

molecular target: LATS1 kinase (Homo sapiens (Human), UniProt O95835); assay: LATS1 Biochemical HTRF Assay; details: 2 mM ATP; read-out: LATS1_HTRF_2 mM ATP IC50
Method: LATS1 Biochemical HTRF Assay
MgCl2 and [1 mM] DTT. 1× Enzymatic buffer diluted from 5× Enzymatic buffer*. Add 0.5 μL of 20× compound in 100% DMSO. […] MgCl2, [1 mM] DTIT and [5 mg/mL] BSA. 5×ERR prepared from 5× Enzymatic buffer with [25 mg/mL] BSA. Mix plate on plate shaker set at 1,350 rpm for 30 seconds, then centrifuge plate at 1,000 rpm for 1 minute. Incubate for 30 minutes at 25° C. on plate shaker set to 500 rpm. […] STK Substrate 1-biotin* then add 2 μL [10 mM] ATP. Mix plate on plate shaker set at 1,350 rpm for 30 seconds, then centrifuge plate at 1,000 rpm for 1 minute. Incubate for 40 minutes at 25° C. on plate shaker set to 500 rpm. […] Streptavidin-XL665 with 1×STK Antibody-Cryptate*. Mix plate on plate shaker set at 1,350 rpm for 30 seconds, then centrifuge plate at 1,000 rpm for 1 minute. Incubate for 60 minutes at 25° C. on plate shaker set to 500 rpm, covered from light.
*(Included in Cisbio KinEASE-STK Si HTRF Kit: 62ST1PEC)

Chain of LATS1 kinase (O95835 589-1130): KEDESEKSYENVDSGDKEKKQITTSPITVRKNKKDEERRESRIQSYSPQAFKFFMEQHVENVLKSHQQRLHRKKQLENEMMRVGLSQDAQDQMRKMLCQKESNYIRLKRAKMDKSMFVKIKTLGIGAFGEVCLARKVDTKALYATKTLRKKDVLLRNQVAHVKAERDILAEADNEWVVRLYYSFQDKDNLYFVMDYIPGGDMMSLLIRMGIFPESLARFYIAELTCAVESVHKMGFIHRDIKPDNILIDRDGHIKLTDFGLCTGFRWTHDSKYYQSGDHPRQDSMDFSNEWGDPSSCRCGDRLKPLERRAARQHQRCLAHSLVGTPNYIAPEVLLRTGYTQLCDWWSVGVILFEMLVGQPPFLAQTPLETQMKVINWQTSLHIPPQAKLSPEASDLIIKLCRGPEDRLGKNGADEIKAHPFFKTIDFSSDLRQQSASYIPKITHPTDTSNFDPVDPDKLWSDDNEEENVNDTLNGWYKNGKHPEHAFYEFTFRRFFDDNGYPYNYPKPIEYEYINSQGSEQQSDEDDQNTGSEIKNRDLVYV

IC50 [nM] | Structure (SMILES)
360 | O=C(/N=c1\sccn1-c1ccc(Cl)cc1)c1ccnc2[nH]ccc12 [Example 44]
850 | O=C(/N=c1\sc(CO)cn1-c1ccccc1Cl)c1ccnc2[nH]ccc12 [Example 63, (Z)—N-(3-(2-chlorophenyl)-5-(hydroxymethyl)thiazol-2(3H)-ylidene)-1H-pyrrolo[2,3-b]pyridine-4-carboxamide]
17 | O=C(/N=C1\SCC(CO)N1Cc1ccccc1)c1c[nH]c2ncccc12 (centres unmarked) [Example 82]
1.1 | O=C(/N=C1\SCCN1c1ccc(F)cc1O)c1c[nH]c2ncccc12 [Example 72]
650 | O=C(/N=c1\sccc(=O)n1-c1ccccc1)c1c[nH]c2ncccc12 [Example 38]
33 | Cc1ccccc1-n1ccs/c1=N\C(=O)c1ccnc2[nH]ccc12 [Example 42]
1.5 | O=C(/N=C1\SCCN1c1cc(F)ccc1O)c1c[nH]c2ncccc12 [Example 75]
50 | O=C(/N=C1\SCCN1C1CCC(O)C1)c1c[nH]c2ncccc12 (centres unmarked) [Example 81, (Z)—N-(3-(3-hydroxycyclopentyl)thiazolidin-2-ylidene)-1H-pyrrolo[2,3-b]pyridine-3-carboxamide]
1680 | CN(C)C(=O)CN1CCCS/C1=N\C(=O)c1c[nH]c2ncccc12 [Example 37, (Z)—N-(3-(2-(Dimethylamino)-2-oxoethyl)-1,3-thiazinan-2-ylidene)-1H-pyrrolo[2,3-b]pyridine-3-carboxamide]
215 | CN(C)Cc1cs/c(=N\C(=O)c2ccnc3[nH]ccc23)n1-c1ccccc1Cl [Example 59, (Z)—N-(3-(2-chlorophenyl)-4-((dimethylamino)methyl)thiazol-2(3H)-ylidene)-1H-pyrrolo[2,3-b]pyridine-4-carboxamide]
3780 | O=C(/N=C1\SCC2CCCCN12)c1c[nH]c2ncccc12 (centres unmarked) [Example 21]
1670 | O=C(/N=c1\sccn1-c1cccc(Cl)c1)c1ccnc2[nH]ccc12 [Example 43]
221 | O=C(/N=C1\SCCN1C1CCCC1O)c1c[nH]c2ncccc12 (centres unmarked) [Example 79, (NZ)—N-[3-(2-hydroxycyclopentyl)thiazolidin-2-ylidene]-1H-pyrrolo[2,3-b]pyridine-3-carboxamide]
220 | Cc1cs/c(=N\C(=O)c2ccnc3[nH]ccc23)n1Cc1ccccc1 [Example 53]
2780 | CN(C)C(=O)c1cs/c(=N\C(=O)c2ccnc3[nH]ccc23)n1-c1ccccc1Cl [Example 56]
180 | O=C(/N=c1\scc(CO)n1Cc1ccccc1)c1ccnc2[nH]ccc12 [Example 54, (Z)—N-(3-benzyl-4-(hydroxymethyl)thiazol-2(3H)-ylidene)-1H-pyrrolo[2,3-b]pyridine-4-carboxamide]
7.9 | CNC(=O)C1CS/C(=N\C(=O)c2c[nH]c3ncccc23)N1c1ccccc1 (centres unmarked) [Example 15, (Z)-2-((1H-pyrrolo[2,3-b]pyridine-3-carbonyl)imino)-N-methyl-3-phenylthiazolidine-4-carboxamide]
1770 | COc1ccccc1-n1ccs/c1=N\C(=O)c1ccnc2[nH]ccc12 [Example 46]
900 | O=C(/N=c1\sccn1Cc1ccccc1)n1ccc2ncccc21 [Example 86]
4040 | O=C(/N=c1\sc(CO)cn1Cc1ccccc1)c1ccnc2[nH]ccc12 [Example 62, (Z)—N-(3-benzyl-5-(hydroxymethyl)thiazol-2(3H)-ylidene)-1H-pyrrolo[2,3-b]pyridine-4-carboxamide]
330 | CC(=O)NCc1cs/c(=N\C(=O)c2ccnc3[nH]ccc23)n1-c1ccccc1Cl [Example 60, (Z)—N-(4-(acetamidomethyl)-3-(2-chlorophenyl)thiazol-2(3H)-ylidene)-1H-pyrrolo[2,3-b]pyridine-4-carboxamide]
4820 | O=C(/N=C1\SCCN1c1cccc(=O)[nH]1)c1c[nH]c2ncccc12 [Example 77]
1.8 | O=C(/N=C1\SCCN1c1c(O)cccc1Cl)c1c[nH]c2ncccc12 [Example 74, (NZ)—N-[3-(2-chloro-6-hydroxy-phenyl)thiazolidin-2-ylidene]-1H-pyrrolo[2,3-b]pyridine-3-carboxamide]

IC50 [nM] | Structure (SMILES)
1230 | Cc1cn(-c2ccccc2Cl)/c(=N/C(=O)c2ccnc3[nH]ccc23)s1 [Example 61]
0.6 | O=C(/N=C1\SCCN1c1c(O)cccc1F)c1c[nH]c2ncccc12 [Example 70]
460 | CN(C)CCNC(=O)c1cs/c(=N\C(=O)c2ccnc3[nH]ccc23)n1Cc1ccccc1 [Example 57, (Z)-2-((1H-pyrrolo[2,3-b]pyridine-4-carbonyl)imino)-3-benzyl-N-(2-(dimethylamino)ethyl)-2,3-dihydrothiazole-4-carboxamide]
191 | O=C(/N=C1\SCCN1c1ccc[nH]c1=O)c1c[nH]c2ncccc12 [Example 76]
270 | O=C(/N=C1\SCCCCN1Cc1ccccc1)c1c[nH]c2ncccc12 [Example 39, (Z)—N-(3-benzyl-1,3-thiazepan-2-ylidene)-1H-pyrrolo[2,3-b]pyridine-3-carboxamide]
1.4 | O=C(/N=C1\SCCN1c1cccc(F)c1O)c1c[nH]c2ncccc12 [Example 73]
1.6 | O=C(/N=C1\SCC(CO)N1c1ccccc1Cl)c1c[nH]c2ncccc12 (centres unmarked) [Example 80]
1380 | O=C(/N=C1\SCCCN1c1ccccc1)c1ccnc2[nH]ccc12 [Example 29]
2140 | N#Cc1cc2ncccc2n1C(=O)/N=c1\sccn1-c1ccccc1 [Example 87]
68 | O=C(/N=c1\scc(CO)n1-c1ccccc1Cl)c1ccnc2[nH]ccc12 [Example 55, (Z)—N-(3-(2-chlorophenyl)-4-(hydroxymethyl)thiazol-2(3H)-ylidene)-1H-pyrrolo[2,3-b]pyridine-4-carboxamide]
505 | O=C(/N=c1\sccn1C1CCCCC1)c1ccnc2[nH]ccc12 [Example 49]
2750 | CC(=O)N1CCC(N2CCCS/C2=N\C(=O)c2c[nH]c3ncccc23)CC1 [Example 31]
220 | O=C(/N=C1\SCCCCN1c1ccccc1)c1c[nH]c2ncccc12 [Example 40, (Z)—N-(3-phenyl-1,3-thiazepan-2-ylidene)-1H-pyrrolo[2,3-b]pyridine-3-carboxamide]
224 | O=C(/N=C1\SCC(=O)N1c1ccccc1)c1c[nH]c2ncccc12 [Example 23]
500 | CN(C)C(=O)CN1CCS/C1=N\C(=O)c1c[nH]c2ncccc12 [Example 18]
18 | O=C(/N=C1\SCCCN1c1cccc(O)c1)c1c[nH]c2ncccc12 [Example 78]
31 | Cc1cs/c(=N\C(=O)c2ccnc3[nH]ccc23)n1C1CCCCC1 [Example 51]
12 | Cc1cs/c(=N\C(=O)c2ccnc3[nH]ccc23)n1CC1CCCCC1 [Example 52]
4440 | CC1(C)CS/C(=N\C(=O)c2c[nH]c3ncccc23)N(C2CCCCC2)C1 [Example 33]
765 | CCc1ccccc1-n1ccs/c1=N\C(=O)c1ccnc2[nH]ccc12 [Example 47]
2060 | O=C(/N=c1\sccn1-c1ccc(CO)cc1Cl)c1ccnc2[nH]ccc12 [Example 50]
1230 | O=C(/N=c1\sccn1-c1ccccc1C(F)(F)F)c1ccnc2[nH]ccc12 [Example 48]

Structure (SMILES) | IC50 [nM]
O=C(/N=C1\SCC2CNCCN12)c1c[nH]c2ncccc12 (centres unmarked) [Example 22, (Z)—N-(hexahydro-3H-thiazolo[3,4-a]pyrazin-3-ylidene)-1H-pyrrolo[2,3-b]pyridine-3-carboxamide] | 2130

tested on: phosphorylation of YAP; assay: pYAP HTRF Assay (HEK 293A Cells); assay type: cell-based; details: HEK293-A, inhibitory activity of phosphorylation of YAP, read-out: LATS1_ICKA_HEK293A IC50
Method: Use 3× dilution scheme in DMSO through column 10, lastly diluting further by 10× into column 11. Add 100% DMSO in serum-free and complete medium in columns 1 and 12 as a positive and negative control, respectively. To achieve a dilution of 1:500, use two 0.8 ml 96-well deep-well plates (ThermoFisher AB0765) pre-filled with the medium as intermediate (1:20) and final dilution plate (1:25). (Transfer row-wise) • Flick the cell plate carefully, three to four times or until all wells are clear of any residual liquid. Dispense 50 μL of the compound in medium into respective wells row-wise, incubate at 37° C. for 30 min • After a 30-minute incubation, flick the cell plate carefully, three to four times or until all wells are clear of any residual liquid. Dilute stock Lysis Buffer #4 (4×) in deionized water, complemented with blocking solution, the stock of which is 100×*. Add 75 μL 1× lysis buffer+blocking reagent mix into each well. Mix plate on a shaker for 30 min at room temperature • Dilute stock solution of total/phospho-YAP Eu cryptate & d2 antibody (each) in the ratio of 1:20 with detection buffer. Mix antibody solutions Eu3+ cryptate and d2 (each for total-Yap and phospho-YAP) in the ratio of 1:1*. Transfer 4 μL of the antibody mixture into two separate small-volume 384-well plates assigned for total-YAP and phospho-YAP. Give a short spin to the plates in a benchtop centrifuge set at 1000 rpm for 30 seconds • Row-wise, homogenize the lysate gently by pipetting it up and down, swirling the tip in the well to help scrape off any adherent cells (avoid bubble formation). Row-wise transfer 16 μL cell lysate into the low-volume 384-well plates with 4 μL total-YAP or phospho-YAP antibody reaction mix for a final volume of 20 μL. Spin down the plates in a benchtop centrifuge set at 1000 rpm for 30 seconds • Seal the plates using a vacuum sealer, incubate overnight at room temperature in the dark on a shaker; read the next day • Use a fluorescence emission read using compatible HTRF® reader—BioTek Synergy NEO. […] Included in Cisbio HTRF YAP total kit (#64YATPEH) & YAP phospho-S127 kit (#64YAPPEH).

IC50 [nM] | Structure (SMILES)
1850 | COc1ccc(N2CCS/C2=N\C(=O)c2c[nH]c3ncccc23)cc1 [Example 7]
1700 | COc1ccccc1N1CCS/C1=N\C(=O)c1c[nH]c2ncccc12 [Example 5]
1740 | COc1cccc(N2CCS/C2=N\C(=O)c2c[nH]c3ncccc23)c1 [Example 9]
2290 | O=C(/N=C1\SCCN1c1ccccc1)n1ccc2ncccc21 [Example 84]
